# Results taken from US12214092B2, “Systems and methods for treating biological fluids” (Cerus Corporation, priority 2017, dated 2025).
# Experiments:
# [1] = Amotosalen concentration post-UVA in FCV-spiked platelets, HPLC; format: physicochemical
# S. epidermidis = assay: Amotosalen and UV light (265-385 nm LEDs) treatment of S. epidermidis in plasma, colony forming unit assay; format: cell-based; details: 15 μM amotosalen, ~3 J/cm^2, plasma
# Source text: This system comprised single arrays facing (e.g., opposing) a platform positioned for the illumination of biological fluids placed on the platform (see e.g., FIG. 5). System controls provided for adjustment of the LEDs during treatment of the biological fluid samples, controlling both the timing and intensity of illumination by the LEDs to achieve a desired light UV light dose. Evaluation of photochemical conversion, photoproduct formation, pathogen inactivation, and plasma and/or platelet quality parameters are performed for each light source wavelength as described previously. In one study using the device, photochemical inactivation of various bacteria were tested for each of the above-referenced LEDs together with amotosalen. The bacteria included E. coli (Gram negative), S. epidermidis (Gram positive), and P. acnes (anaerobe). As there are known germicidal effects of ultraviolet light with wavelengths in the UVC and UVB range, the study was controlled to determine for each LED wavelength the total inactivation levels, as well as inactivation levels specifically resulting from the UV light (without added amotosalen) or the photochemical treatment process itself.
structure (smiles),measurement,setting,value
"Cc1oc2c(C)c3oc(=O)cc(C)c3cc2c1COCCN [S-59, 3-(2-aminoethoxymethyl)-2,5,9-trimethylfuro[3,2-g]chromen-7-one]",S-59 post-UVA concentration,"[1]; 15 μM, 4 hr incubation, 340 nm ~3 J/cm^2",0.6 µM
same,S-59 post-UVA concentration,"[1]; 15 μM, 8 hr incubation, 340 nm ~3 J/cm^2",0.6 µM
same,S-59 post-UVA concentration,"[1]; 15 μM, 8 hr, 340 nm ~3 J/cm^2 Top Only",<1 µM
same,S-59 post-UVA concentration,"[1]; 15 μM, 8 hr, 340 nm ~3 J/cm^2 Top/Bottom",<1 µM
same,S-59 post-UVA concentration,"[1]; 15 μM, 24 hr incubation, 340 nm ~3 J/cm^2",0.6 µM
same,S-59 post-UVA concentration,"[1]; 15 μM, 24 hr, 340 nm ~3 J/cm^2 Top Only",<1 µM
same,S-59 post-UVA concentration,"[1]; 15 μM, 24 hr, 340 nm ~3 J/cm^2 Top/Bottom",<1 µM
same,S-59 post-UVA concentration,"[1]; 30 μM, 4 hr incubation, 340 nm ~3 J/cm^2",0.8 µM
same,S-59 post-UVA concentration,"[1]; 30 μM, 8 hr incubation, 340 nm ~3 J/cm^2",0.9 µM
same,S-59 post-UVA concentration,"[1]; 30 μM, 8 hr, 340 nm ~3 J/cm^2 Top Only",<1 µM
same,S-59 post-UVA concentration,"[1]; 30 μM, 8 hr, 340 nm ~3 J/cm^2 Top/Bottom",<1 µM
same,S-59 post-UVA concentration,"[1]; 30 μM, 24 hr incubation, 340 nm ~3 J/cm^2",0.8 µM
same,S-59 post-UVA concentration,"[1]; 30 μM, 24 hr, 340 nm ~3 J/cm^2 Top Only",<1 µM
same,S-59 post-UVA concentration,"[1]; 30 μM, 24 hr, 340 nm ~3 J/cm^2 Top/Bottom",<1 µM
same,S-59 post-UVA concentration,"[1]; 90 μM, 4 hr incubation, 340 nm ~3 J/cm^2",3.8 µM
same,S-59 post-UVA concentration,"[1]; 90 μM, 8 hr incubation, 340 nm ~3 J/cm^2",0.9 µM
same,S-59 post-UVA concentration,"[1]; 90 μM, 24 hr incubation, 340 nm ~3 J/cm^2",3.3 µM
same,S-59 post-UVA concentration,"[1]; 150 μM, 0 hr incubation, 340 nm, more than twice ~3 J/cm^2",2.1 µM
same,S-59 post-UVA concentration,"[1]; 150 μM, 0 hr, 340 nm Top Only",10.8 µM
same,S-59 post-UVA concentration,"[1]; 150 μM, 0 hr, 340 nm Top/Bottom",7.7 µM
same,Log reduction from S-59,S. epidermidis; 265 nm,0.89 log
same,Log reduction total,S. epidermidis; 265 nm,5.23 log
same,Log reduction from S-59,S. epidermidis; 280 nm,1.56 log
same,Log reduction total,S. epidermidis; 280 nm,5.02 log
same,Log reduction from S-59,S. epidermidis; 310 nm,6.68 log
same,Log reduction total,S. epidermidis; 310 nm,7.19 log
same,Log reduction from S-59,S. epidermidis; 325 nm,7.17 log
same,Log reduction total,S. epidermidis; 325 nm,7.18 log
same,Log reduction from S-59,S. epidermidis; 340 nm,7.18 log
same,Log reduction total,S. epidermidis; 340 nm,7.28 log
same,Log reduction from S-59,S. epidermidis; 365 nm,7.32 log
same,Log reduction total,S. epidermidis; 365 nm,7.26 log
same,Log reduction from S-59,S. epidermidis; 385 nm,1.85 log
same,Log reduction total,S. epidermidis; 385 nm,1.76 log
